Like-named read-outs stand apart in the source and are kept apart here.
How the values were obtained:
[1] = tested on: Adjuvant arthritis (paw volume increase) in rats; assay: Adjuvant arthritis (method of Pearson), antiinflammatory action on the 5th day; format: in vivo, rat (male, Wistar-Lewis strain); details: Rattus norvegicus, 120 h; for ED50: adjuvant arthritis, oral, determined graphically from dose-response curve; for inhibition in vivo at 50 mg/kg: po, 50 mg/kg p.o. once daily, 1st to 5th day, vs untreated control, read-out: Adjuvant arthritis (% inhibition at 50 mg/kg orally)
Procedure: The testing of the compounds of the formula I according to the invention for antiinflammatory action, influence on immunopathological processes, oxygen free radicaldeactivating properties and influence on arachidonic acid metabolism was carried out in the animal models and bioassays described in the following.
1. Adjuvant arthritis for influencing the antiinflammatory action (Table 2)
(§1) The investigations were carried out by the method of Pearson (Arthrit. Rheum. 1959, 2, 44). Male rats of a Wistar-Lewis strain having a body weight between 130 and 200 g were used as experimental animals. The compounds to be tested were administered orally (p. o.) once daily from the 1st to the 5th experimental day in doses of 50 mg per kg of body weight. The animals of one control group received only the vehicle. Each preparation group and the control group comprised 8 animals. The percentage reduction of the paw volume increase compared to that of the untreated control group was used as the criterion of action. The ED50 values were determined graphically from the dose-response curve.
(§2) 4-(3,5-Di-tert.-butyl-4-hydroxyphenyl)-2-methylthiazole i.e. the compound of the formula [drawing 26] according to US-A-4,535,165 mentioned at the beginning, was additionally included in this and the investigation below as a comparison preparation.

[2] = Free radical scavenger properties (reaction with DPPH); details: reaction with DPPH at 20° C.; determined graphically
Procedure: a) Free radical scavenger properties The testing in this test, which allows conclusions on the antioxidative potential of a substance, was carried out according to Smith et al., Biochem, Pharmacol. 1987. 36, 1456. In this test, the reaction of the compounds according to the invention with the stable free radical 1,1-diphenyl-2-picrylhydrazyl (DPPH) is monitored optically at 20° C. The rate constant K and reaction orders n in Table 5 were determined graphically in the customary manner.

[3] = tested on: TXB2 formation in mast cell cultures; assay: Influence on formation of TXB2 in mast cell cultures (rat); format: cell-based; details: read-out: TXB2, Residual activity (%)
Procedure: (§3) Moreover, the substances according to the invention were also characterized in cellular leukocyte systems in vitro as inhibitors of arachidonic acid metabolites. To detect the lipoxygenase metabolites, human neutrophils stimlated by calcium ionophore A 23 187 (70 mcmol/1) were incubated with ^14 C-arachidonic acid (81 mcmol/1) and the principal metabolites formed after 15 minutes at 37° C., such as 5-hydroxyeicosatetraenoic acid (5-HETE) and the more strongly proinflammatory leukotriene B4 (LTB4) were determined quantitatively (Tab. 6) with the aid of a radio monitor after separation by HPLC. The influence on the proinflammatory arachiconic acid metabolites thromboxane and LTB4 in cultures prepared from rat mast cells was determined in a corresponding manner (Tab. 7).

[4] = tested on: LTB4 formation in mast cell cultures; assay: Influence on formation of LTB4 in mast cell cultures (rat); format: cell-based; details: read-out: LTB4, Residual activity (%)
Procedure: as §3

[5] = tested on: Adjuvant arthritis (Perper modification; paw volume) in rats; assay: Adjuvant arthritis (Perper modification), paw volume on the 21st day; format: in vivo, rat (male, Wistar-Lewis strain); details: Rattus norvegicus, po, 504 h, 1st to 12th day; for inhibition in vivo at 2.5 mg/kg: 2.5 mg/kg/day; for inhibition in vivo at 5 mg/kg: 5 mg/kg/day
[6] = molecular target: T1, cyclooxygenase (Ovis aries, UniProt P05979); assay: Cyclooxygenase (microsomes) inhibition in vitro; format: biochemical, sheep
T1 construct: microsomal cyclooxygenase system (fraction from sheep seminal vesicles, Paesel, Frankfurt, Germany); purchased Paesel, Frankfurt, Germany; host or cells: sheep seminal vesicles (microsomal fraction)
T1 sequence (P05979 25-600): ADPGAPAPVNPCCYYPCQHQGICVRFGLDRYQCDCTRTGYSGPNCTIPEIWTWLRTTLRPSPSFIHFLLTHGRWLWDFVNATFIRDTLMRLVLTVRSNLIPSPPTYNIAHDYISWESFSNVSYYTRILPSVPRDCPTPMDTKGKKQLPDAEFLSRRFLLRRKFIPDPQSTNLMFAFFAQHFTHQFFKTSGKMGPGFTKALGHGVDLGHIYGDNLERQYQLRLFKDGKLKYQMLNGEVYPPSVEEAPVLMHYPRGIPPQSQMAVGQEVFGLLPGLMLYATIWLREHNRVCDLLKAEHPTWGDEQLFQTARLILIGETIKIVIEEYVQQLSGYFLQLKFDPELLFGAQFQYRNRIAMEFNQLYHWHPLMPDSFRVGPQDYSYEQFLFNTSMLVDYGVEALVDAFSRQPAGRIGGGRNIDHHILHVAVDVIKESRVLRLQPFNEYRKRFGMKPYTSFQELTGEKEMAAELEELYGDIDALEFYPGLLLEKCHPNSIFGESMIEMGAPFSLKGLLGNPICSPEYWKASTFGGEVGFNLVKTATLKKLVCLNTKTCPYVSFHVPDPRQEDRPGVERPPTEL
Procedure: (§4) The inhibitory action of the compounds according to the invention is measured on the in vitro arachidonic acid degradation catalyzed by cyclooxycenase and lipoxycenase with the aid of the test systems described in Weithmann and Alpermann, Arzneim.-Forsch. 1985, 35, 947: The cyclooxygenase-catalyzed synthesis of prostaglandins from arachidonic acid is measured in the microsomal cyclooxygenase system (fraction from sheep seminal vesicles, Paesel, Frankfurt, Germany). The coenzyme is adrenaline, whose conversion to adrenochrome is monitored by spectrophotometry at 492 nm. Cis-9-cis-12-linoleic acid is incubated with lipoxygenase (L7127, Sigma, Deisenhofen, Germany) in the lipoxygenase system in vitro and the formation of conjugated double bonds taking place during the oxygenation reaction is monitored optically at 234 nm.
The inhibitor actions, or the inhibitor concentrations necessary for a 50 % inhibition of enzyme activity (IC50 values), have been determined for the following examples according to the invention:
Cyclooxygenase (microsomes)

[7] = tested on: LTB4 formation in human neutrophils; assay: Influence on LTB4 formation in human neutrophils; format: cell-based; details: Neutrophil
Procedure: as §3

[8] = tested on: 5-HETE formation in human neutrophils; assay: Influence on 5-HETE formation in human neutrophils; format: cell-based; details: Neutrophil
Procedure: as §3

[9] = tested on: Arthus reaction (paw volume increase) in rats; assay: Reverse passive Arthus reaction; format: in vivo, rat (male Sprague-Dawley)
Procedure: b) Reverse passive Arthus reaction
Male Sprague-Dawley rats having a body weight between 100 and 120 g. which had been divided into groups of 8 animals in each case, were used as experimental animals. The animals received a subplantar injection in the left hind paw of 0.5 mg of immunoglobulin in 0.1 ml of a sodium chloride solution 1 hour after oral administration of the test substance. After 4 hours, the Arthus reaction was measured, the percentage change in the paw volume increase compared to that of the control group treated only with vehicle being used as a measuring parameter for the action.

[10] = molecular target: T2, lipoxygenase (Glycine max, UniProt P08170); assay: Lipoxygenase (enzyme) inhibition in vitro; format: biochemical
T2 construct: purchased Sigma, Deisenhofen, Germany L7127
T2 sequence (P08170 1-839): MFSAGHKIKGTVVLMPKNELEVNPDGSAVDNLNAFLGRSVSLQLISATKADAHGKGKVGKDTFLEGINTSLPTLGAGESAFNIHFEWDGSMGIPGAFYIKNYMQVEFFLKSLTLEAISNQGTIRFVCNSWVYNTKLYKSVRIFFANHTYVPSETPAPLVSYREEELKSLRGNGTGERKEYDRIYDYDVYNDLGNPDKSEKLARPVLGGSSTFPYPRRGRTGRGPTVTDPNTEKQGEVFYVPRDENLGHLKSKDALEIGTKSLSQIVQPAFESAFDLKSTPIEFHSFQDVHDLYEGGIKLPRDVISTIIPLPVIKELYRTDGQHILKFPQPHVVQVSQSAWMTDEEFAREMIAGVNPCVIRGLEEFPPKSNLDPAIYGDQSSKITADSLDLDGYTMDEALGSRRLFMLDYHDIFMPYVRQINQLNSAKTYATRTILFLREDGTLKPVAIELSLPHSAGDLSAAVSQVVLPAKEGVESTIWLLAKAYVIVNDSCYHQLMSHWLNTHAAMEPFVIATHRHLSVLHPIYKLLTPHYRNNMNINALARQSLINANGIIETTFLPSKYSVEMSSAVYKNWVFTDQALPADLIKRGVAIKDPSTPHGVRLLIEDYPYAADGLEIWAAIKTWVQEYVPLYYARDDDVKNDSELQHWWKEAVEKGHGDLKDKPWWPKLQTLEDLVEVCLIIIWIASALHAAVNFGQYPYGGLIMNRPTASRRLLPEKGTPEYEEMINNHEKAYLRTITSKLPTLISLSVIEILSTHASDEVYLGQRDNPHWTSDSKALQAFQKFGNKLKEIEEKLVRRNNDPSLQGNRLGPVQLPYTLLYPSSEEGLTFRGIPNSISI
Procedure: as §4
The inhibitor actions, or the inhibitor concentrations necessary for a 50 % inhibition of enzyme activity (IC50 values), have been determined for the following examples according to the invention: […]

[11] = tested on: Adjuvant arthritis (Perper modification; paw volume) in rats; assay: Adjuvant arthritis (Perper modification), paw volume on the 21st day; format: in vivo, rat (male, Wistar-Lewis strain); details: Rattus norvegicus, po, 504 h, 50 mg/kg/day, 1st to 12th day
Procedure: as §1, §2
a) Adjuvant arthritis (Perper modification)
The animals were only treated from the 1st to the 12th experimental day in the experimental arrangement described in item 1. After a treatment-free interval of 9 days, determination of the paw volume of the left and right hind paw was carried out on the 21st day (compare Table 3).

[12] = read-out: % inhibition on the 21st day, Left paw
[13] = read-out: % inhibition on the 21st day, Right paw

`CC(C)(C)c1cc(-c2csc(CCC(=O)O)n2)cc(C(C)(C)C)c1O` [Example 3, 3-[4-(3,5-Di-tert.-butyl-4-hydroxyphenyl)thiazol-2-yl]propionic acid] gave an ED50 [1] of 0.9 mg/kg, an inhibition in vivo at 50 mg/kg [1] of 84% and a reaction order n [2] of less than 1. It also gave an activity at 1 µM ([3]; 1 μM) of 113 ± 49%, an activity at 10 µM ([3]; 10 μM) of 94 ± 17% and an activity at 100 µM ([3]; 100 μM) of 28 ± 10%. The activity at 1 µM ([4]; 1 μM) was 94 ± 12%, the activity at 10 µM ([4]; 10 μM) was 102 ± 9% and the activity at 100 µM ([4]; 100 μM) was 78 ± 14%. It also gave an inhibition in vivo at 2.5 mg/kg [5, 12] of 65%, an inhibition in vivo at 2.5 mg/kg [5, 13] of 59% and an inhibition in vivo at 5 mg/kg [5, 12] of 41%. It also gave an inhibition in vivo at 5 mg/kg [5, 13] of 74%.

For `CC(C)(C)c1cc(-c2csc(CCC(=O)NO)n2)cc(C(C)(C)C)c1O` [Example 7, 3-[4-(3 .-butyl-4-hydroxyphenyl)thiazol-2-yl]propionylhydroxamic acid], the ED50 [1] was 2.4 mg/kg, the inhibition in vivo at 50 mg/kg [1] was 83% and the reaction order n [2] was 1. For the same molecule, the inhibition at 100 µM [6] was 75%, the activity at 0.1 µM ([7]; 0.1 μM, n = 6, read-out: LTB4 formation, Residual activity (%)) was 91 ± 13.2% and the activity at 1 µM ([7]; 1 μM, n = 6, read-out: LTB4 formation, Residual activity (%)) was 74.3 ± 21.5%. For the same molecule, the activity at 10 µM ([7]; 10 μM, n = 6, read-out: LTB4 formation, Residual activity (%)) was 35 ± 17%, the activity at 100 µM ([7]; 100 μM, n = 9, read-out: LTB4 formation, Residual activity (%)) was 1.7 ± 1.3% and the activity at 0.1 µM ([8]; 0.1 μM, n = 6, read-out: 5-HETE formation, Residual activity (%)) was 89.2 ± 12.1%. It also gave an activity at 1 µM ([8]; 1 μM, n = 6, read-out: 5-HETE formation, Residual activity (%)) of 87 ± 15.6%, an activity at 10 µM ([8]; 10 μM, n = 6, read-out: 5-HETE formation, Residual activity (%)) of 39 ± 12.8% and an activity at 100 µM ([8]; 100 μM, n = 9, read-out: 5-HETE formation, Residual activity (%)) of 1.7 ± 0.4%.

In the case of `CCOC(=O)Cc1nc(-c2cc(C(C)(C)C)c(O)c(C(C)(C)C)c2)cs1` [Example 8], the “% inhibition (Arthus reaction)” value ([9]; 60 mg/kg orally) is reported as 38%, the reaction order n [2] is reported as 1 and the IC50 ([10]; Lipoxygenase (enzyme)) is reported as 50 µM. It also gave an inhibition at 100 µM [6] of 75%.

Molecule `Cc1sc(CCC(=O)O)nc1-c1cc(C(C)(C)C)c(O)c(C(C)(C)C)c1` [Example 15] has an ED50 [1] of 2.6 mg/kg, an inhibition in vivo at 50 mg/kg [1] of 67% and an inhibition in vivo at 50 mg/kg [11, 12] of 39%. For the same molecule, the inhibition in vivo at 50 mg/kg [11, 13] was 50%, the “% inhibition (Arthus reaction)” value ([9]; 100 mg/kg orally) was 47% and the reaction order n [2] was less than 1. It also gave an inhibition at 100 µM ([10]; at 100 μM) of 78%.

In the case of `CCOC(=O)CCc1nc(-c2cc(C)c(O)c(C(C)(C)C)c2)cs1` [Example 16], the reaction order n [2] is reported as less than 1 and the IC50 [6] is reported as 34 µM.

— patent US5137897A, “2-substituted 4-(3-alkyl-5-tert.-butyl-4-hydroxyphenyl) thiazoles, processes for their preparation, pharmaceuticals containing them and their use” (Hoechst Aktiengesllschaft, priority 1989, dated 1992)
